Earlier results, collected in patent US11896043B2, “Intestinal immune-enhancing agent, food product, and medicament” (DAICEL CORPORATION, priority 2017, dated 2024).

Tested on: IgA

OC[C@H]1O[C@@H](O[C@H]2[C@H](O)[C@@H](O)[C@@H](O[C@]3(CO)O[C@H](CO)[C@@H](O)[C@@H]3O)O[C@@H]2CO)[C@H](O)[C@@H](O)[C@H]1O [lactosucrose, 4^G-β-D-galactosylsucrose]
amounts of IgA in the feces and cecal contents (2% and 5% LS added feed for 4 weeks): significantly increased | amount of IgA in the feces (after two weeks): decreased greatly | amount of IgA in the feces relative to the control group (one week after ingestion): about twice
